# Experimental data as given in patent US20100298141A1, “SUBSTITUTED PYRIDINE N-OXIDE HERBICIDES” (E. I. DU PONT DE NEMOURS AND COMPANY, priority 2007, published 2010).
# Tests used:
# kochia = experiment: Test C pre-/postemergence test; type: in vivo, Kochia scoparia
# Summary of the method: (§1)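 Test chemicals were formulated with surfactant in a non-phytotoxic solvent and sprayed both on freshly planted seeds (preemergence) and on 1- to 4-leaf plants of 2–18 cm (postemergence). Flooded-paddy pots received compound directly into 3 cm of standing water, maintained for the test.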
# corn = experiment: Test A pre-/postemergence greenhouse test; type: in vivo, Zea mays; conditions: for Plant response rating, Corn: 0 to 100 scale where 0 is no effect and 100 is complete control; for Corn plant response rating: 0 to 100 scale
# Summary of the method: (§2)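 Two application timings were run side by side in the greenhouse. Before emergence, compound went onto the soil surface of loam–sand pots as a directed spray; after emergence, plants at 2–10 cm and the one- to two-leaf stage were treated. Visual injury versus controls was rated at approximately day ten.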
# pigweed = experiment: Test C pre-/postemergence test; type: in vivo, Amaranthus retroflexus
# Summary of the method: as §1
# rice = experiment: Test C flooded paddy test; type: in vivo, Oryza sativa; conditions: Flood
# Summary of the method: (§3)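 Compound was added to standing water 3 cm above soil, flood maintained, and plants held in a greenhouse before visual scoring against controls at 13 to 15 days.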
# wild oat = experiment: Test C pre-/postemergence test; type: in vivo, Avena fatua
# Summary of the method: as §1
# Surinam grass = experiment: Test C pre-/postemergence test; type: in vivo, Brachiaria decumbens
# Summary of the method: as §1
# wheat = experiment: Test C pre-/postemergence test; type: in vivo, Triticum aestivum
# Summary of the method: as §1
# redroot pigweed = experiment: Test A pre-/postemergence greenhouse test; type: in vivo, Amaranthus retroflexus; conditions: for Plant response rating, Pigweed: 0 to 100 scale where 0 is no effect and 100 is complete control; for Pigweed plant response rating: 0 to 100 scale
# Summary of the method: as §2
# [1] = test system: common (oilseed) sunflower; experiment: Test C pre-/postemergence test; type: in vivo, Helianthus annuus
# Text: Seeds of plant species selected from blackgrass (Alopecurus myosuroides), downy brome (Bromus tectorum), green foxtail (Setaria viridis), Italian ryegrass (Lolium multiflorum), wheat (Triticum aestivum), wild oat (Avena fatua), catchweed bedstraw (Galium aparine), Russian thistle (Salsola kali), […] (Cynodon dactylon), Surinam grass (Brachiaria decumbens), cocklebur (Xanthium strumarium), corn (Zea mays), crabgrass (Digitaria sanguinalis), woolly cupgrass (Eriochloa villosa), giant foxtail (Setaria faberii), Goosegrass (Eleusin indica), johnsongrass (Sorghum halepense), kochia (Kochia scoparia), lambsquarters (Chenopodium album), morningglory (Ipomoea coccinea), eastern black nightshade (Solanum ptycanthum), yellow nutsedge (Cyperus esculentus), pigweed (Amaranthus retroflexus), common ragweed (Ambrosia elation), soybean (Glycine max), common (oilseed) sunflower (Helianthus annuus), and velvetleaf (Abutilon theophrasti) were planted and treated preemergence with test chemicals formulated in a non-phytotoxic solvent mixture which included a surfactant. At the same time, plants selected from these crop and weed species and also winter barley (Hordeum vulgare), canarygrass (Phalaris minor), and chickweed (Stellaria media) were treated with postemergence applications of some of the test chemicals formulated in the same manner. Plants ranged in height from 2 to 18 cm (1- to 4-leaf stage) for postemergence treatments. […] At time of treatment, test pots were flooded to 3 cm above the soil surface, treated by application of test compounds directly to the paddy water, and then maintained at that water depth for the duration of the test. […] A dash (-) response means no test result.
# barnyardgrass = experiment: Test C flooded paddy test; type: in vivo, Echinochloa crus-galli; conditions: Flood
# Summary of the method: as §3
# velvetleaf = experiment: Test C pre-/postemergence test; type: in vivo, Abutilon theophrasti
# Summary of the method: as §1
# blackgrass = experiment: Test C pre-/postemergence test; type: in vivo, Alopecurus myosuroides
# Summary of the method: as §1
# crabgrass = experiment: Test C pre-/postemergence test; type: in vivo, Digitaria sanguinalis
# Summary of the method: as §1
# bermudagrass = experiment: Test C pre-/postemergence test; type: in vivo, Cynodon dactylon
# Summary of the method: as §1
# duck salad = experiment: Test C flooded paddy test; type: in vivo, Heteranthera limosa; conditions: Flood
# Summary of the method: as §3
# [2] = 62 g ai/ha, Preemergence, scale 0 to 100
# [3] = 125 g ai/ha, preemergence, scale 0 (no effect) to 100 (complete control)
# [4] = Preemergence, 31 g ai/ha, scale 0 to 100 (0 no effect, 100 complete control)
# [5] = preemergence, 250 g ai/ha, scale 0 (no effect) to 100 (complete control)
# [6] = Postemergence, 500 g ai/ha, 0 is no effect, 100 is complete control
# [7] = Preemergence, 125 g ai/ha, 0 no effect, 100 complete control
# [8] = 62 g ai/ha, scale 0 to 100 (0 no effect, 100 complete control)
# [9] = 250 g ai/ha, scale 0 to 100, 0 no effect, 100 complete control, 13 to 15 days
smiles,measurement,setting,value
CCn1nc(C(F)(F)F)c(C[S+]([O-])c2cc(C)cc[n+]2[O-])c1OCC(F)(F)F (racemic) [Compound 66],Kochia plant response rating,kochia; [2],100
same,Kochia plant response rating,kochia; [3],100
same,"Plant response rating, Kochia",kochia; [4],100
same,Kochia plant response rating,kochia; [5],100
same,"Plant response rating, Corn","corn; Postemergence, 125 g ai/ha",50
same,Corn plant response rating,corn; [6],80
same,Corn plant response rating,corn; [7],30
same,"Plant response rating, Corn","corn; Preemergence, 500 g ai/ha",80
same,Pigweed plant response rating,pigweed; [2],30
same,Pigweed plant response rating,pigweed; [3],100
same,Pigweed plant response rating,pigweed; [5],100
same,"Plant response rating, Rice",rice; [8],20
same,"Plant response rating, Rice",rice; [9],70
same,"Oat, Wild plant response rating",wild oat; [2],85
same,"Oat, Wild plant response rating",wild oat; [3],95
same,"Plant response rating, Oat, Wild",wild oat; [4],85
same,"Oat, Wild plant response rating",wild oat; [5],95
same,Surinam Grass plant response rating,Surinam grass; [2],100
same,Surinam Grass plant response rating,Surinam grass; [3],100
same,"Plant response rating, Surinam Grass",Surinam grass; [4],100
same,Surinam Grass plant response rating,Surinam grass; [5],100
same,Wheat plant response rating,wheat; [2],85
same,Wheat plant response rating,wheat; [3],98
same,"Plant response rating, Wheat",wheat; [4],0
same,Wheat plant response rating,wheat; [5],100
same,"Plant response rating, Pigweed","redroot pigweed; Postemergence, 125 g ai/ha",60
same,Pigweed plant response rating,redroot pigweed; [6],90
same,Pigweed plant response rating,redroot pigweed; [7],100
same,"Plant response rating, Pigweed","redroot pigweed; Preemergence, 500 g ai/ha",100
same,Sunflower plant response rating,[1]; [2],80
same,Sunflower plant response rating,[1]; [3],80
same,"Plant response rating, Sunflower",[1]; [4],30
same,Sunflower plant response rating,[1]; [5],98
same,"Plant response rating, Barnyardgrass",barnyardgrass; [8],10
same,"Plant response rating, Barnyardgrass",barnyardgrass; [9],70
same,Velvetleaf plant response rating,velvetleaf; [2],90
same,Velvetleaf plant response rating,velvetleaf; [3],95
same,"Plant response rating, Velvetleaf",velvetleaf; [4],70
same,Velvetleaf plant response rating,velvetleaf; [5],100
same,Blackgrass plant response rating,blackgrass; [2],70
same,Blackgrass plant response rating,blackgrass; [3],100
same,"Plant response rating, Blackgrass",blackgrass; [4],50
same,Blackgrass plant response rating,blackgrass; [5],100
same,"Crabgrass, Large plant response rating",crabgrass; [2],100
same,"Crabgrass, Large plant response rating",crabgrass; [3],100
same,"Plant response rating, Crabgrass, Large",crabgrass; [4],100
same,"Crabgrass, Large plant response rating",crabgrass; [5],100
same,Bermudagrass plant response rating,"bermudagrass; 62 g ai/ha, Preemergence, scale 0 to 100 (0 no effect, 100 complete control)",100
same,Bermudagrass plant response rating,bermudagrass; [3],100
same,"Plant response rating, Bermudagrass",bermudagrass; [4],100
same,Bermudagrass plant response rating,bermudagrass; [5],100
same,"Plant response rating, Ducksalad",duck salad; [8],70
same,"Plant response rating, Ducksalad",duck salad; [9],90
